Assay results reported in paper PMC6143478, “Lipophilic activated ester prodrug approach for drug delivery to the intestinal lymphatic system” (Journal of Controlled Release, 2018).

Test: Plasma pharmacokinetics following intravenous administration in rats
Format: in vivo
Details: i.v., dose equivalent to 2.5 mg/kg BEX, rat; in words
Protocol: The protocols for pharmacokinetic and biodistribution experiments in this study were reviewed and approved by the University of Nottingham Ethical Review Committee in accordance with the Animals [Scientific Procedures] Act 1986. Male Sprague Dawley rats (Charles River Laboratories, UK) weighing 350–380 g were used. The animals were housed in the Bio Support Unit, University of Nottingham. Continuous lymph collection was performed according to a protocol approved by the Institutional Animal Care and Use Committee at Rutgers, The State University of New Jersey. Male Sprague Dawley rats (Envigo, Inc., NJ, USA) weighing 300–350 g were used for the continuous lymph collection. […]
Jugular vein cannulation surgery procedures were conducted under general anaesthesia for blood sampling. […] Blood samples of 250 μL volume were collected from the cannula at pre-determined time points following administration. […]
The HPLC-UV system consisting of a separation module (Waters Alliance 2695) equipped with a UV detector (Waters 996) was used for analysis. […] BEX and its prodrugs were detected at 259 nm and RA and its prodrugs at 357 nm.
Assessment of statistical significance of differences between two groups was conducted by means of two-tailed unpaired t-test. Statistical significance among three or more groups was assessed by means of a one-way ANOVA followed by Tukey's multiple comparisons test. […]

C=C(c1ccc(C(=O)OCC)cc1)c1cc2c(cc1C)C(C)(C)CCC2(C)C [prodrug 2]
conversion of prodrug to BEX in plasma in vivo: rapidly converted to BEX
